In PubChem BioAssay AID1259407 (Chemical Carcinogenesis Research Information System (CCRIS), 2018):
Activity calls are given as the source filed them. How the calls were made is not given here.

Test system: CCRIS mutagenicity, Ames/micronucleus/aberration tests
Experiment: CCRIS mutagenicity studies
Details: Test System: AMES SALMONELLA TYPHIMURIUM
[1] = Strain/Indicator: TA97, Metabolic Activation: NONE, Method: PREINCUBATION
[2] = Strain/Indicator: TA102, Metabolic Activation: NONE, Method: PREINCUBATION

CC(C)(OOC(C)(C)c1ccccc1)c1ccccc1
mutagenic call (Strain/Indicator: TA97, Metabolic Activation: HAMSTER, LIVER, S-9, AROCLOR 1254 (10 OR 30%), Method: PREINCUBATION): inactive; negative
mutagenic call [1]: inactive; negative
mutagenic call (Strain/Indicator: TA97, Metabolic Activation: RAT, LIVER, S-9, AROCLOR 1254 (10 OR 30%), Method: PREINCUBATION): inactive; negative
mutagenic call (Strain/Indicator: TA97A, Metabolic Activation: MOUSE LIVER S-9, AROCLOR 1254, Method: PREINCUBATION): inactive; negative
mutagenic call (Strain/Indicator: TA97A, Metabolic Activation: NONE, Method: PREINCUBATION): inactive; negative
mutagenic call (Strain/Indicator: TA97A, Metabolic Activation: RAT LIVER S-9, AROCLOR 1254, Method: PREINCUBATION): inactive; negative
mutagenic call (Strain/Indicator: TA98, Metabolic Activation: HAMSTER, LIVER, S-9, AROCLOR 1254 (10 OR 30%), Method: PREINCUBATION): inactive; negative
mutagenic call (Strain/Indicator: TA98, Metabolic Activation: NONE, Method: FLUCTUATION (MICROTITER)): inactive; negative
mutagenic call (Strain/Indicator: TA98, Metabolic Activation: NONE, Method: PREINCUBATION): inactive; negative
mutagenic call (Strain/Indicator: TA98, Metabolic Activation: RAT LIVER S-9, AROCLOR 1254, Method: FLUCTUATION (MICROTITER)): inactive; negative
mutagenic call (Strain/Indicator: TA98, Metabolic Activation: RAT, LIVER, S-9, AROCLOR 1254 (10 OR 30%), Method: PREINCUBATION): inactive; negative
mutagenic call (Strain/Indicator: TA100, Metabolic Activation: HAMSTER, LIVER, S-9, AROCLOR 1254 (10 OR 30%), Method: PREINCUBATION): inactive; negative
mutagenic call (Strain/Indicator: TA100, Metabolic Activation: MOUSE LIVER S-9, AROCLOR 1254, Method: PREINCUBATION): inactive; negative
mutagenic call (Strain/Indicator: TA100, Metabolic Activation: NONE, Method: PREINCUBATION): inactive; negative
mutagenic call (Strain/Indicator: TA100, Metabolic Activation: RAT LIVER S-9, AROCLOR 1254, Method: PREINCUBATION): inactive; negative
mutagenic call (Strain/Indicator: TA100, Metabolic Activation: RAT, LIVER, S-9, AROCLOR 1254 (10 OR 30%), Method: PREINCUBATION): inactive; negative
mutagenic call [2]: inactive; negative
mutagenic call (Strain/Indicator: TA102, Metabolic Activation: RAT LIVER S-9, AROCLOR 1254, Method: PREINCUBATION): inactive; negative
mutagenic call (Strain/Indicator: TA104, Metabolic Activation: MOUSE LIVER S-9, AROCLOR 1254, Method: PREINCUBATION): inactive; negative
mutagenic call (Strain/Indicator: TA104, Metabolic Activation: NONE, Method: PREINCUBATION): inactive; negative
mutagenic call (Strain/Indicator: TA104, Metabolic Activation: RAT LIVER S-9, AROCLOR 1254, Method: PREINCUBATION): inactive; negative
mutagenic call (Strain/Indicator: TA1535, Metabolic Activation: HAMSTER, LIVER, S-9, AROCLOR 1254 (10 OR 30%), Method: PREINCUBATION): inactive; negative
mutagenic call (Strain/Indicator: TA1535, Metabolic Activation: NONE, Method: PREINCUBATION): inactive; negative
mutagenic call (Strain/Indicator: TA1535, Metabolic Activation: RAT, LIVER, S-9, AROCLOR 1254 (10 OR 30%), Method: PREINCUBATION): inactive; negative
mutagenic call (Strain/Indicator: TA1537, Metabolic Activation: NONE, Method: FLUCTUATION (MICROTITER)): inactive; negative
mutagenic call (Strain/Indicator: TA1537, Metabolic Activation: RAT LIVER S-9, AROCLOR 1254, Method: FLUCTUATION (MICROTITER)): inactive; negative
mutagenic call (Strain/Indicator: TA7001, Metabolic Activation: NONE, Method: FLUCTUATION (MICROTITER)): inactive; negative
mutagenic call (Strain/Indicator: TA7001, Metabolic Activation: RAT LIVER S-9, AROCLOR 1254, Method: FLUCTUATION (MICROTITER)): inactive; negative
mutagenic call (Strain/Indicator: TA7002, Metabolic Activation: NONE, Method: FLUCTUATION (MICROTITER)): inactive; negative
mutagenic call (Strain/Indicator: TA7002, Metabolic Activation: RAT LIVER S-9, AROCLOR 1254, Method: FLUCTUATION (MICROTITER)): inactive; negative
mutagenic call (Strain/Indicator: TA7003, Metabolic Activation: NONE, Method: FLUCTUATION (MICROTITER)): inactive; negative
mutagenic call (Strain/Indicator: TA7003, Metabolic Activation: RAT LIVER S-9, AROCLOR 1254, Method: FLUCTUATION (MICROTITER)): inactive; negative
mutagenic call (Strain/Indicator: TA7004, Metabolic Activation: NONE, Method: FLUCTUATION (MICROTITER)): inactive; negative
mutagenic call (Strain/Indicator: TA7004, Metabolic Activation: RAT LIVER S-9, AROCLOR 1254, Method: FLUCTUATION (MICROTITER)): inactive; negative
mutagenic call (Strain/Indicator: TA7005, Metabolic Activation: NONE, Method: FLUCTUATION (MICROTITER)): inactive; negative
mutagenic call (Strain/Indicator: TA7005, Metabolic Activation: RAT LIVER S-9, AROCLOR 1254, Method: FLUCTUATION (MICROTITER)): inactive; negative
mutagenic call (Strain/Indicator: TA7006, Metabolic Activation: NONE, Method: FLUCTUATION (MICROTITER)): inactive; negative
mutagenic call (Strain/Indicator: TA7006, Metabolic Activation: RAT LIVER S-9, AROCLOR 1254, Method: FLUCTUATION (MICROTITER)): inactive; negative

Nc1ccc(Nc2c3ccccc3nc3ccccc23)cc1
mutagenic call (Strain/Indicator: TA1537, Metabolic Activation: NONE, Method: STANDARD PLATE): active; positive

C/C(=C(\CCOC(=O)c1ccccc1)SC(=O)c1ccccc1)N(C=O)Cc1cnc(C)nc1N
mutagenic call [1]: inactive; negative
mutagenic call (Strain/Indicator: TA97, Metabolic Activation: RAT, LIVER, S-9, AROCLOR 1254, Method: PREINCUBATION): inactive; negative
mutagenic call [2]: inactive; negative
mutagenic call (Strain/Indicator: TA102, Metabolic Activation: RAT, LIVER, S-9, AROCLOR 1254, Method: PREINCUBATION): inactive; negative

O=C1CCC(=O)N1c1ccc(Cl)cc1
mutagenic call (Strain/Indicator: TA98, Metabolic Activation: NONE, Method: STANDARD PLATE): inactive; negative
mutagenic call (Strain/Indicator: TA98, Metabolic Activation: RAT, LIVER, S-9, AROCLOR 1254, Method: STANDARD PLATE): inactive; negative
mutagenic call (Strain/Indicator: TA100, Metabolic Activation: NONE, Method: STANDARD PLATE): inactive; negative
mutagenic call (Strain/Indicator: TA100, Metabolic Activation: RAT, LIVER, S-9, AROCLOR 1254, Method: STANDARD PLATE): inactive; negative
